Assay results: ChEMBL document CHEMBL1201862, “PubChem BioAssay data set” (2004)
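These data come from cells grown in 96-well plates and exposed to compound for 48 hours at five concentrations. At the GI50, growth is halved.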 Activity calls are given as the source filed them. Cut-off read from the data, not from the text of the source: active = GI50 up to about 1.1 µM and inactive = higher.

Assays:
Assay in all cases: NCI tumour cell line growth inhibition, 48 h
SN12C = test system: SN12C
HT-29 = test system: HT-29
UACC-257 = test system: UACC-257
RPMI-8226 = test system: RPMI-8226
OVCAR-8 = test system: OVCAR-8
OVCAR-3 = test system: OVCAR-3
SNB-19 = test system: SNB-19
UACC-62 = test system: UACC-62
NCI-H460 = test system: NCI-H460
SK-OV-3 = test system: SK-OV-3
A498 = test system: A498
HOP-62 = test system: HOP-62
K562 = test system: K562
M14 = test system: M14
HOP-92 = test system: HOP-92
ACHN = test system: ACHN
HL-60 = test system: HL-60

SMILES: COc1ccc(C(=O)Nc2ccccc2)cc1[N+](=O)[O-]
- GI50 (SN12C): > 100 µM (inactive)
- GI50 (HT-29): 70.3 µM (inactive)
- GI50 (UACC-257): > 100 µM (inactive)
- GI50 (RPMI-8226): > 100 µM (inactive)
- GI50 (OVCAR-8): > 100 µM (inactive)
- GI50 (OVCAR-3): 58.9 µM (inactive)
- GI50 (SNB-19): > 100 µM (inactive)
- GI50 (UACC-62): > 100 µM (inactive)
- GI50 (NCI-H460): > 100 µM (inactive)
- GI50 (SK-OV-3): > 100 µM (inactive)
- GI50 (A498): > 100 µM (inactive)
- GI50 (HOP-62): > 100 µM (inactive)
- GI50 (K562): > 100 µM (inactive)
- GI50 (M14): > 100 µM (inactive)

SMILES: Cc1cc(O)cc2c1O[C@@]1(C)CCC3[C@@]4(C)CC[C@H](O)C(C)(C)C4CC[C@@]3(C)[C@H]1C2 (some centres undefined)
- GI50 (HOP-92): 5.09 µM (inactive)
- GI50 (SN12C): 11.6 µM (inactive)
- GI50 (HT-29): 13.3 µM (inactive)
- GI50 (UACC-257): 12.9 µM (inactive)
- GI50 (RPMI-8226): 2.18 µM (inactive)
- GI50 (OVCAR-8): 8.45 µM (inactive)
- GI50 (OVCAR-3): 6.31 µM (inactive)
- GI50 (UACC-62): 8.11 µM (inactive)
- GI50 (NCI-H460): 4.41 µM (inactive)
- GI50 (SK-OV-3): 3.4 µM (inactive)
- GI50 (A498): 19.6 µM (inactive)
- GI50 (ACHN): 5.24 µM (inactive)
- GI50 (K562): 2.47 µM (inactive)
- GI50 (HL-60): 2.99 µM (inactive)
- GI50 (M14): 11.3 µM (inactive)

SMILES: CC(=O)Nc1ccc(-c2nnc(SCC(=O)Nc3cccc(Cl)c3)o2)cc1
- GI50 (SN12C): 16 µM (inactive)
- GI50 (HT-29): 17.2 µM (inactive)
- GI50 (UACC-257): 17.3 µM (inactive)
- GI50 (RPMI-8226): 15 µM (inactive)
- GI50 (OVCAR-8): 33.2 µM (inactive)
- GI50 (OVCAR-3): 7.11 µM (inactive)
- GI50 (SNB-19): 22 µM (inactive)
- GI50 (UACC-62): 15.4 µM (inactive)
- GI50 (NCI-H460): 13.1 µM (inactive)
- GI50 (SK-OV-3): 38 µM (inactive)
- GI50 (A498): 16.3 µM (inactive)
- GI50 (ACHN): 15.2 µM (inactive)
- GI50 (HOP-62): 19.7 µM (inactive)
- GI50 (K562): 14.4 µM (inactive)
- GI50 (HL-60): 18.2 µM (inactive)
- GI50 (M14): 11.8 µM (inactive)

SMILES: CN(C)C(=S)/N=c1\ss/c(=N\C(=S)N(C)C)n1Cc1ccco1
- GI50 (SN12C): > 100 µM (inactive)
- GI50 (UACC-257): > 100 µM (inactive)
- GI50 (RPMI-8226): > 100 µM (inactive)
- GI50 (OVCAR-8): > 100 µM (inactive)
- GI50 (SNB-19): > 100 µM (inactive)
- GI50 (UACC-62): > 100 µM (inactive)
- GI50 (NCI-H460): > 100 µM (inactive)
- GI50 (SK-OV-3): > 100 µM (inactive)
- GI50 (A498): > 100 µM (inactive)
- GI50 (ACHN): > 100 µM (inactive)
- GI50 (HOP-62): > 100 µM (inactive)
- GI50 (K562): > 100 µM (inactive)
- GI50 (HL-60): > 100 µM (inactive)
- GI50 (M14): > 100 µM (inactive)

SMILES: N#CSCc1nc2ccc(Cl)cc2c(-c2ccccc2)[n+]1[O-]
- GI50 (HOP-92): 16 µM (inactive)
- GI50 (SN12C): 20 µM (inactive)
- GI50 (HT-29): 20 µM (inactive)
- GI50 (UACC-257): 42.3 µM (inactive)
- GI50 (RPMI-8226): 25.3 µM (inactive)
- GI50 (OVCAR-8): 19.7 µM (inactive)
- GI50 (OVCAR-3): 26.8 µM (inactive)
- GI50 (SNB-19): 41.6 µM (inactive)
- GI50 (UACC-62): 19.2 µM (inactive)
- GI50 (NCI-H460): 40.3 µM (inactive)
- GI50 (A498): > 100 µM (inactive)
- GI50 (ACHN): 16.9 µM (inactive)
- GI50 (HOP-62): > 100 µM (inactive)
- GI50 (K562): 25.7 µM (inactive)
- GI50 (HL-60): 21.5 µM (inactive)
- GI50 (M14): 21.9 µM (inactive)

SMILES: c1ccc2c(c1)N=C(c1cccc3ccccc13)CC(c1cccc3ccccc13)S2 (centres undefined)
- GI50 (SN12C): 4.79 µM (inactive)
- GI50 (HT-29): 3.33 µM (inactive)
- GI50 (UACC-257): 14.7 µM (inactive)
- GI50 (RPMI-8226): 1.9 µM (inactive)
- GI50 (OVCAR-8): 2.96 µM (inactive)
- GI50 (OVCAR-3): 2.77 µM (inactive)
- GI50 (SNB-19): 4.33 µM (inactive)
- GI50 (UACC-62): 5.21 µM (inactive)
- GI50 (NCI-H460): 3.8 µM (inactive)
- GI50 (SK-OV-3): 10.3 µM (inactive)
- GI50 (A498): 7.94 µM (inactive)
- GI50 (ACHN): 10.2 µM (inactive)
- GI50 (HOP-62): 9.14 µM (inactive)
- GI50 (K562): 2.49 µM (inactive)
- GI50 (HL-60): 0.467 µM (active)
- GI50 (M14): 13.2 µM (inactive)

SMILES: CCOC1=C2N=C(C(CC)c3ccc(F)cc3)N=C2C(=O)c2ccccc21 (centres undefined)
- GI50 (HOP-92): 17.7 µM (inactive)
- GI50 (SN12C): 16.3 µM (inactive)
- GI50 (HT-29): 19.2 µM (inactive)
- GI50 (UACC-257): 20.2 µM (inactive)
- GI50 (RPMI-8226): 23.8 µM (inactive)
- GI50 (OVCAR-8): 30.5 µM (inactive)
- GI50 (OVCAR-3): 32.9 µM (inactive)
- GI50 (SNB-19): 51.4 µM (inactive)
- GI50 (UACC-62): 10.9 µM (inactive)
- GI50 (NCI-H460): 26.5 µM (inactive)
- GI50 (SK-OV-3): 32.1 µM (inactive)
- GI50 (ACHN): 19.1 µM (inactive)
- GI50 (HOP-62): 46.3 µM (inactive)
- GI50 (K562): 20.6 µM (inactive)
- GI50 (HL-60): 35.3 µM (inactive)
- GI50 (M14): 26 µM (inactive)

SMILES: Cc1ccc(/C=C/C(=O)c2cccc3ccccc23)cc1
- GI50 (SN12C): 14.3 µM (inactive)
- GI50 (HT-29): 18.2 µM (inactive)
- GI50 (UACC-257): 18.5 µM (inactive)
- GI50 (RPMI-8226): 2.49 µM (inactive)
- GI50 (OVCAR-8): 14.5 µM (inactive)
- GI50 (OVCAR-3): 17.5 µM (inactive)
- GI50 (SNB-19): 16.1 µM (inactive)
- GI50 (UACC-62): 17.4 µM (inactive)
- GI50 (NCI-H460): 15.2 µM (inactive)
- GI50 (SK-OV-3): 24.4 µM (inactive)
- GI50 (A498): 13.9 µM (inactive)
- GI50 (ACHN): 16.9 µM (inactive)
- GI50 (HOP-62): 20.7 µM (inactive)
- GI50 (K562): 8.65 µM (inactive)
- GI50 (HL-60): 7.18 µM (inactive)
- GI50 (M14): 19.3 µM (inactive)

SMILES: CCCCCC(=O)C(C)C1=Nc2nnc(CCCCCCCc3nnc4n3C(=O)C(C(C)C(=O)CCCCC)=N4)n2C1=O (centres undefined)
- GI50 (SN12C): > 100 µM (inactive)
- GI50 (HT-29): > 100 µM (inactive)
- GI50 (UACC-257): > 100 µM (inactive)
- GI50 (RPMI-8226): > 100 µM (inactive)
- GI50 (OVCAR-8): > 100 µM (inactive)
- GI50 (OVCAR-3): > 100 µM (inactive)
- GI50 (SNB-19): > 100 µM (inactive)
- GI50 (UACC-62): > 100 µM (inactive)
- GI50 (NCI-H460): > 100 µM (inactive)
- GI50 (SK-OV-3): > 100 µM (inactive)
- GI50 (ACHN): > 100 µM (inactive)
- GI50 (HOP-62): > 100 µM (inactive)
- GI50 (K562): > 100 µM (inactive)
- GI50 (HL-60): > 100 µM (inactive)
- GI50 (M14): > 100 µM (inactive)

SMILES: CCOC(=O)c1[nH]c2c(OC)n[n+]([O-])cc2c1[N+](=O)[O-]
- GI50 (SN12C): 20.4 µM (inactive)
- GI50 (HT-29): 15.9 µM (inactive)
- GI50 (UACC-257): 19 µM (inactive)
- GI50 (RPMI-8226): 18.1 µM (inactive)
- GI50 (OVCAR-8): 19.9 µM (inactive)
- GI50 (OVCAR-3): 20.6 µM (inactive)
- GI50 (SNB-19): 25.6 µM (inactive)
- GI50 (UACC-62): 19.5 µM (inactive)
- GI50 (NCI-H460): 21.1 µM (inactive)
- GI50 (SK-OV-3): > 100 µM (inactive)
- GI50 (A498): 21.8 µM (inactive)
- GI50 (ACHN): 17.3 µM (inactive)
- GI50 (HOP-62): 56.8 µM (inactive)
- GI50 (K562): 14.4 µM (inactive)
- GI50 (HL-60): 19.7 µM (inactive)
- GI50 (M14): 19.9 µM (inactive)

SMILES: Cc1c2c(cc[n+]1C)O[B-](c1ccccc1)(c1ccccc1)O2
- GI50 (SN12C): 51.8 µM (inactive)
- GI50 (HT-29): > 100 µM (inactive)
- GI50 (UACC-257): 55.5 µM (inactive)
- GI50 (RPMI-8226): 40.2 µM (inactive)
- GI50 (OVCAR-8): 67.3 µM (inactive)
- GI50 (OVCAR-3): 43.7 µM (inactive)
- GI50 (UACC-62): 16.3 µM (inactive)
- GI50 (NCI-H460): 50 µM (inactive)
- GI50 (SK-OV-3): 94 µM (inactive)
- GI50 (A498): 64 µM (inactive)
- GI50 (ACHN): 35.9 µM (inactive)
- GI50 (HOP-62): > 100 µM (inactive)
- GI50 (K562): 46 µM (inactive)
- GI50 (HL-60): 35.1 µM (inactive)
- GI50 (M14): 41.5 µM (inactive)

SMILES: O=C1[C@@H]2C(c3cccc([N+](=O)[O-])c3)=NO[C@@H]2C(=O)N1c1ccc(Cc2ccc(N3C(=O)[C@H]4C(c5cccc([N+](=O)[O-])c5)=NO[C@H]4C3=O)cc2)cc1
- GI50 (HOP-92): > 100 µM (inactive)
- GI50 (SN12C): > 100 µM (inactive)
- GI50 (HT-29): > 100 µM (inactive)
- GI50 (UACC-257): > 100 µM (inactive)
- GI50 (RPMI-8226): > 100 µM (inactive)
- GI50 (OVCAR-8): > 10 µM (inactive)
- GI50 (OVCAR-3): > 100 µM (inactive)
- GI50 (UACC-62): > 100 µM (inactive)
- GI50 (NCI-H460): > 100 µM (inactive)
- GI50 (SK-OV-3): > 10 µM (inactive)
- GI50 (ACHN): > 100 µM (inactive)
- GI50 (HOP-62): > 100 µM (inactive)
- GI50 (K562): > 100 µM (inactive)
- GI50 (M14): > 100 µM (inactive)

SMILES: COc1ccc(C2=NC(CO)[C@H](c3ccccc3)O2)cc1OC (some centres undefined)
- GI50 (HOP-92): > 100 µM (inactive)
- GI50 (SN12C): > 100 µM (inactive)
- GI50 (HT-29): > 100 µM (inactive)
- GI50 (UACC-257): > 100 µM (inactive)
- GI50 (OVCAR-8): > 100 µM (inactive)
- GI50 (OVCAR-3): > 100 µM (inactive)
- GI50 (SNB-19): > 100 µM (inactive)
- GI50 (UACC-62): 53.6 µM (inactive)
- GI50 (NCI-H460): > 100 µM (inactive)
- GI50 (SK-OV-3): 96.4 µM (inactive)
- GI50 (A498): > 100 µM (inactive)
- GI50 (ACHN): > 100 µM (inactive)
- GI50 (HOP-62): > 100 µM (inactive)
- GI50 (K562): > 100 µM (inactive)
- GI50 (HL-60): > 100 µM (inactive)
- GI50 (M14): > 100 µM (inactive)
